Measured values taken from patent publication US10118947B2, “Modulation of structured polypeptide specificity” (BICYCLE THERAPEUTICS LIMITED, priority 2013, dated 2018).
pKi: −log10 of the molar value. Where two headings read alike, the source gives them in different places. Numbered stars: 1 amine (or outer) side, 2 acyl side, 3 side chain; on linkers, the order of the positions; unused ones are H or OH. Bridge positions count the residues as written; N and C are the ends. Square brackets hold non-standard residues; d marks the D form. Peptide text beside a SMILES is read from it. TBMB = c1c(C[*:1])cc(C[*:3])cc1C[*:2]; NMeH = CN[C@@H](Cc1c[nH]cn1)C(=O)O; NMeQ = CN[C@@H](CCC(N)=O)C(=O)O; NMeL = CN[C@@H](CC(C)C)C(=O)O

Tests used:
[1] = Plasma stability / fragment profiling Method #2 (MALDI-TOF, 95% plasma), human plasma; type: in vitro ADME; conditions: peptide fragments observed after incubation in human plasma
Protocol: To obtain stability data more rapidly, peptides were also assessed in 95% plasma. Here, PBS was omitted, and a 1 mM peptide stock (in DMSO) was directly diluted into plasma (i.e. 2.5 uL stock into 47.5 uL plasma), giving a final concentration of 50 uM. 5 uL samples were taken at appropriate time points and frozen at −80 deg C. For analysis, the samples were defrosted, mixed with 15 uL of 1:1 acetonitrile:methanol, and centrifuged at 13 k for 5 min. 5 uL of the peptide-containing supernatant was aspirated and mixed with 30 mM ammonium bicarbonate in a 1:1 mixture of acetonitrile:H2O. 1 uL of this was then spotted on the MALDI plate and analysed as described above. As above, it should be noted that this is a qualitative assay serves to detect relative changes in plasma stability.
Ac-06-34-18(TMB)-NH2 Phe2 Tyr4 (referred to as wild type peptide) was subsequently subjected to human plasma, and analysed for fragments to appear over time. This was compared to the degradation profile observed in human plasma using the NMe-Arg5 derivative of 06-34-18 (FIGS. 18a and 18b). Fragmentation was determined according to Method #2.

human plasma Kallikrein = molecular target: T1, human plasma Kallikrein (Homo sapiens, UniProt P03952); assay: Functional enzyme inhibition assay with fluorogenic substrate Z-PheArg-AMC, human plasma Kallikrein; type: biochemical; conditions: for pKi: read-out: Ki
T1 construct: purchased Stratech, UK
T1 sequence (P03952 20-638): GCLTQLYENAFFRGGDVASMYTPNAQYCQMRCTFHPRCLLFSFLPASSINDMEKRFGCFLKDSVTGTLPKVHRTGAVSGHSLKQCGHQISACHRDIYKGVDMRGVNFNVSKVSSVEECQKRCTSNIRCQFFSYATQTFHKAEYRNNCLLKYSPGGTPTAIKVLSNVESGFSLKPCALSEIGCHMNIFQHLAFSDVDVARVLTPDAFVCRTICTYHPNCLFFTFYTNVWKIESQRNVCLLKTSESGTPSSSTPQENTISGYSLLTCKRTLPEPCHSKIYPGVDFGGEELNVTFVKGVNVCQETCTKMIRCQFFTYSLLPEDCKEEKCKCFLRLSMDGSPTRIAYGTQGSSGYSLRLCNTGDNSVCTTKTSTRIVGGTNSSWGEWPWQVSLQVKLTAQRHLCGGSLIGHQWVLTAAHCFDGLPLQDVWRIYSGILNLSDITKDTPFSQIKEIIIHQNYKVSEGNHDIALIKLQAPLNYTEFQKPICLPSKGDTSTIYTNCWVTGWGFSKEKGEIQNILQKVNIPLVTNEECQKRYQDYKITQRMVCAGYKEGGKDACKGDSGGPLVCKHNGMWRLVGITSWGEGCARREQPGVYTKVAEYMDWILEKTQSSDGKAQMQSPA
How it was run: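 Human plasma kallikrein at 26.5 pM was preincubated 15 minutes with test peptide in Tris/NaCl/MgCl2/CaCl2/BSA buffer pH7.4 at 25° C, then Z-PheArg-AMC added to 100 μM final in 4% DMSO.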

[2] = Table 25a, fold change of Ki of variant compared to WT
[3] = Table 25a, α-N-methyl amino acid scan in Loop2, human plasma kallikrein
[4] = Table 3b, D-amino acid scan in Loop2
[5] = Table 3b, ratio of Ki to wild type

Row | SMILES | Fragments (human plasma) ([1]; Table 25a) | F (Kivar/KiWT) (human plasma Kallikrein; [2]) | pKi (human plasma Kallikrein; [3]) | Fragments (human plasma) ([1]; Table 3b) | pKi (human plasma Kallikrein; [4]) | F (Kivar/KiWT) (human plasma Kallikrein; [5]) | further results
1 | CC(=O)N[C@H]1CSCc2cc3cc(c2)CSC[C@H](NC(=O)[C@H](CCCNC(=N)N)NC(=O)[C@H](Cc2ccc(O)cc2)NC(=O)[C@@H]2CCCN2C(=O)[C@H](Cc2ccccc2)NC(=O)[C@H](CO)NC1=O)C(=O)N[C@@H](CC(C)C)C(=O)N[C@@H](Cc1c[nH]cn1)C(=O)N(C)[C@@H](CCC(N)=O)C(=O)N[C@@H](CC(=O)O)C(=O)N[C@@H](CC(C)C)C(=O)N[C@H](C(N)=O)CSC3 [Ac-(06-34-18) Phe2 Tyr4 NMe-Gln8] (Ac-CSFPYRCLH[NMeQ]DLC-NH2; linker 1-7-13 via TBMB) | -R, -FPYR | 149 | 7.20 |  |  |  | 
2 | CC(=O)N[C@H]1CSCc2cc3cc(c2)CSC[C@H](NC(=O)[C@H](CCCNC(=N)N)NC(=O)[C@H](Cc2ccc(O)cc2)NC(=O)[C@@H]2CCCN2C(=O)[C@H](Cc2ccccc2)NC(=O)[C@H](CO)NC1=O)C(=O)N[C@@H](CC(C)C)C(=O)N(C)[C@@H](Cc1cnc[nH]1)C(=O)N[C@@H](CCC(N)=O)C(=O)N[C@@H](CC(=O)O)C(=O)N[C@@H](CC(C)C)C(=O)N[C@H](C(N)=O)CSC3 [Ac-(06-34-18) Phe2 Tyr4 NMe-His7] (Ac-CSFPYRCL[NMeH]QDLC-NH2; linker 1-7-13 via TBMB) | -R, -FPYR | 151 | 7.20 |  |  |  | 
3 | CC(=O)N[C@H]1CSCc2cc3cc(c2)CSC[C@H](NC(=O)[C@H](CCCNC(=N)N)NC(=O)[C@H](Cc2ccc(O)cc2)NC(=O)[C@@H]2CCCN2C(=O)[C@H](Cc2ccccc2)NC(=O)[C@H](CO)NC1=O)C(=O)N[C@@H](CC(C)C)C(=O)N[C@@H](Cc1c[nH]cn1)C(=O)N[C@@H](CCC(N)=O)C(=O)N[C@@H](CC(=O)O)C(=O)N(C)[C@@H](CC(C)C)C(=O)N[C@H](C(N)=O)CSC3 [Ac-(06-34-18) Phe2 Tyr4 NMe-Leu10] (Ac-CSFPYRCLHQD[NMeL]C-NH2; linker 1-7-13 via TBMB) | -R, -FPYR | 1396 | 6.23 |  |  |  | 
4 | CC(=O)N[C@H]1CSCc2cc3cc(c2)CSC[C@H](NC(=O)[C@H](CCCNC(=N)N)NC(=O)[C@H](Cc2ccc(O)cc2)NC(=O)[C@@H]2CCCN2C(=O)[C@H](Cc2ccccc2)NC(=O)[C@H](CO)NC1=O)C(=O)N[C@@H](CC(C)C)C(=O)N[C@@H](Cc1c[nH]cn1)C(=O)N[C@@H](CCC(N)=O)C(=O)N[C@@H](CC(=O)O)C(=O)N[C@H](CC(C)C)C(=O)N[C@H](C(N)=O)CSC3 [Ac-(06-34-18) Phe2 Tyr4 D-Leu10] (Ac-CSFPYRCLHQD[dL]C-NH2; linker 1-7-13 via TBMB) |  |  |  | -R, -FPYR | 6.38 | 990 | 
5 | CC(=O)N[C@H]1CSCc2cc3cc(c2)CSC[C@H](NC(=O)[C@H](CCCNC(=N)N)NC(=O)[C@H](Cc2ccc(O)cc2)NC(=O)[C@@H]2CCCN2C(=O)[C@H](Cc2ccccc2)NC(=O)[C@H](CO)NC1=O)C(=O)N[C@@H](C)C(=O)N[C@@H](Cc1c[nH]cn1)C(=O)N[C@@H](CCC(N)=O)C(=O)N[C@@H](CC(=O)O)C(=O)N[C@@H](CC(C)C)C(=O)N[C@H](C(N)=O)CSC3 [Ac-(06-34-18) Phe2 Tyr4 Ala6] (Ac-CSFPYRCAHQDLC-NH2; linker 1-7-13 via TBMB) |  |  |  |  |  |  | Fragments (human plasma) ([1]; Table 3a): -LHQ, -R; pKi (human plasma Kallikrein; Table 3a, Alanine scan in Loop2): 8.72; F (Kivar/KiWT) (human plasma Kallikrein; Table 3a, ratio of Ki to wild type): 5
6 | CC(=O)N[C@H]1CSCc2cc3cc(c2)CSC[C@H](NC(=O)[C@H](CCCNC(=N)N)NC(=O)[C@H](Cc2ccc(O)cc2)NC(=O)[C@@H]2CCCN2C(=O)[C@H](Cc2ccccc2)NC(=O)[C@H](CO)NC1=O)C(=O)N[C@H](CC(C)C)C(=O)N[C@@H](Cc1c[nH]cn1)C(=O)N[C@@H](CCC(N)=O)C(=O)N[C@@H](CC(=O)O)C(=O)N[C@@H](CC(C)C)C(=O)N[C@H](C(N)=O)CSC3 [Ac-(06-34-18) Phe2 Tyr4 D-Leu6] (Ac-CSFPYRC[dL]HQDLC-NH2; linker 1-7-13 via TBMB) |  |  |  | -R, -FPYR | 5.04 | 21615 | 
